Experimental data as given in the NIST ThermoML archive (doi:10.1021/acs.jced.7b00106).

Conditions: Liquid, Hot wire method

FC(F)(F)/C=C/Cl [(E)-1-chloro-3,3,3-trifluoroprop-1-ene]
Conditions	thermal conductivity [W/m/K]
263.11 K, 10284 kPa	0.09779
263.11 K, 15941 kPa	0.1
263.12 K, 275 kPa	0.09368
263.12 K, 5037 kPa	0.09578
263.3 K, 65213 kPa	0.1155
263.31 K, 42853 kPa	0.1092
263.34 K, 36413 kPa	0.1071
263.35 K, 59142 kPa	0.1143
263.39 K, 51112 kPa	0.1115
263.4 K, 29224 kPa	0.1049
263.45 K, 22281 kPa	0.1026
263.48 K, 65190 kPa	0.115
263.49 K, 15926 kPa	0.1002
263.5 K, 10264 kPa	0.0981
263.5 K, 42848 kPa	0.1085
263.52 K, 5059 kPa	0.09603
263.53 K, 267 kPa	0.09392
263.53 K, 36413 kPa	0.1068
263.54 K, 59138 kPa	0.1137
263.58 K, 51103 kPa	0.1112
263.59 K, 29225 kPa	0.1044
263.64 K, 22275 kPa	0.1022
263.7 K, 15944 kPa	0.09988
263.71 K, 10281 kPa	0.09774
263.73 K, 5041 kPa	0.09557
263.75 K, 278 kPa	0.09344
263.84 K, 65191 kPa	0.1154
263.88 K, 42851 kPa	0.1087
263.91 K, 36412 kPa	0.1071
263.95 K, 51092 kPa	0.1113
263.98 K, 29226 kPa	0.1045
264.05 K, 65174 kPa	0.1149
264.1 K, 42852 kPa	0.1085
264.11 K, 59122 kPa	0.1132
264.13 K, 36411 kPa	0.1066
264.17 K, 51091 kPa	0.1108
264.21 K, 29227 kPa	0.1042
281.25 K, 20968 kPa	0.09541
281.29 K, 10961 kPa	0.09337
281.3 K, 3101 kPa	0.08933
281.3 K, 6243 kPa	0.09051
281.31 K, 203 kPa	0.08831
281.31 K, 16036 kPa	0.09555
281.32 K, 20959 kPa	0.09554
281.36 K, 10962 kPa	0.09248
281.38 K, 3093 kPa	0.0889
281.38 K, 6225 kPa	0.09019
281.39 K, 193 kPa	0.08772
281.61 K, 39518 kPa	0.1031
281.62 K, 46215 kPa	0.1057
281.62 K, 55364 kPa	0.1084
281.64 K, 16024 kPa	0.09394
281.64 K, 33249 kPa	0.1009
281.64 K, 64739 kPa	0.1107
281.65 K, 20972 kPa	0.09689
281.65 K, 27078 kPa	0.0987
281.7 K, 10959 kPa	0.09251
281.71 K, 39517 kPa	0.103
281.71 K, 55366 kPa	0.1082
281.72 K, 6236 kPa	0.09039
281.72 K, 46217 kPa	0.1053
281.73 K, 3096 kPa	0.08936
281.73 K, 33252 kPa	0.1011
281.73 K, 64721 kPa	0.1106
281.74 K, 201 kPa	0.08787
281.75 K, 16022 kPa	0.09421
281.75 K, 20962 kPa	0.09616
281.75 K, 27071 kPa	0.09865
281.8 K, 10956 kPa	0.0923
281.83 K, 6219 kPa	0.09017
281.85 K, 185 kPa	0.08733
281.85 K, 3101 kPa	0.08903
282.03 K, 55362 kPa	0.1085
282.04 K, 64705 kPa	0.1107
282.05 K, 39515 kPa	0.1034
282.05 K, 46209 kPa	0.1055
282.08 K, 33242 kPa	0.1012
282.1 K, 27075 kPa	0.09876
282.11 K, 16012 kPa	0.09449
282.11 K, 20964 kPa	0.09638
282.15 K, 46205 kPa	0.1054
282.15 K, 55358 kPa	0.108
282.15 K, 64700 kPa	0.1104
282.16 K, 39512 kPa	0.103
282.18 K, 10959 kPa	0.09237
282.2 K, 33255 kPa	0.101
282.21 K, 6234 kPa	0.09065
282.22 K, 3104 kPa	0.08891
282.23 K, 27070 kPa	0.09861
282.24 K, 198 kPa	0.08741
282.24 K, 16024 kPa	0.0943
282.24 K, 20959 kPa	0.09631
282.31 K, 10962 kPa	0.09207
282.35 K, 6225 kPa	0.09024
282.37 K, 3126 kPa	0.08877
282.38 K, 188 kPa	0.08744
282.5 K, 55349 kPa	0.108
282.5 K, 64686 kPa	0.1105
282.52 K, 39509 kPa	0.103
282.52 K, 46199 kPa	0.1053
282.57 K, 33243 kPa	0.101
282.6 K, 27082 kPa	0.09879
282.62 K, 16026 kPa	0.09446
282.62 K, 20964 kPa	0.09651
282.63 K, 64675 kPa	0.1105
282.64 K, 55348 kPa	0.1078
282.67 K, 39508 kPa	0.103
282.67 K, 46193 kPa	0.105
282.71 K, 10958 kPa	0.09238
282.73 K, 33247 kPa	0.1009
282.75 K, 6236 kPa	0.09029
282.75 K, 27089 kPa	0.09858
282.78 K, 3125 kPa	0.08898
282.78 K, 20962 kPa	0.09627
282.79 K, 16015 kPa	0.09427
282.8 K, 194 kPa	0.08765
282.88 K, 10957 kPa	0.09201
282.92 K, 6218 kPa	0.09006
282.95 K, 3110 kPa	0.08875
282.97 K, 194 kPa	0.08733
282.99 K, 64664 kPa	0.1105
283 K, 55335 kPa	0.1078
283.04 K, 46194 kPa	0.1053
283.06 K, 39510 kPa	0.1032
283.12 K, 33245 kPa	0.1008
283.15 K, 64649 kPa	0.1103
283.16 K, 27095 kPa	0.09871
283.18 K, 20963 kPa	0.09653
283.18 K, 55341 kPa	0.1078
283.21 K, 16028 kPa	0.09435
283.21 K, 46185 kPa	0.105
283.24 K, 39508 kPa	0.103
283.29 K, 10953 kPa	0.09216
283.29 K, 33245 kPa	0.1006
283.34 K, 27084 kPa	0.09839
283.35 K, 6234 kPa	0.09024
283.38 K, 3103 kPa	0.08892
283.38 K, 20960 kPa	0.09617
283.39 K, 16020 kPa	0.09411
283.42 K, 178 kPa	0.08755
283.5 K, 10953 kPa	0.09198
283.54 K, 64641 kPa	0.1105
283.55 K, 6234 kPa	0.08992
283.57 K, 55328 kPa	0.108
283.59 K, 3103 kPa	0.08855
